{
  "source": "patent US10722496B2",
  "about": "“2-iminobiotin for use in the treatment of brain cell injury” (Neurophyxia B.V., priority 2015, dated 2020)",
  "key": {"IMR-32 cells [1]": {"tested_on": "IMR-32 cells", "experiment": "Nitrate/nitrite Griess assay in culture media", "format": "cell-based, human", "conditions": "data not shown", "procedure": "(§1) In vitro hypoxia was induced in the cell cultures by using our recently described system with minor modifications (Huang et al., 2013b; Weber et al., 2015; Zitta et al., 2010). Enzyme stock solutions (100×) of catalase and glucose oxidase (both from Sigma-Aldrich) were prepared in cell culture medium (DMEM/F12, 1% FCS; final concentration: 120 U/ml and 2 U/ml respectively; Sigma-Aldrich) leading to a decrease of partial pressure of oxygen (pO2) below 10 mmHg within 5 minutes. Hypoxic conditions were confirmed by using a tissue oxygen pressure monitor (LICOX® CMP Oxygen Catheter; Integra, Plainsboro, USA). After 7 hours of hypoxia, the cells were washed twice with PBS (PAA) and fresh normoxic medium supplemented with solvent (citrate buffer 1%) or 2-IB (10, 30, 50, 100 and 300 ng/mL) was added to the cells. Investigations of cell damage, metabolic activity, ROS, hydrogen peroxide, nitrite/nitrate production, erkl/2, akt and stat5 phosphorylation as well as cell stress protein expression were performed with cell culture media or cell protein (FIG. 1).\nNitrate and nitrite concentrations were evaluated in culture media using a Griess colorimetric assay kit (Sigma-Aldrich) according to the manufacturer's instructions. Absorbance at 540 nm was measured in samples and standards using an ELISA reader (Tecan, Crailsheim, Germany)."}, "IMR-32 cells [2]": {"tested_on": "IMR-32 cells", "experiment": "Reactive oxygen species (ROS) measurement, H2DCFDA", "format": "cell-based, human", "procedure": "as §1\nFor reactive oxygen species (ROS) measurements, 4×10^4 cells were seeded per well and cultured for 3 days in black walled 96-well plates (Greiner Bio-One, Frickenhausen, Germany). After hypoxia, cells were washed with pre-warmed PBS and cultured in a phenol red-free DMEM/F12 medium (Gibco®-invitrogen, NY, USA) with 1% fetal calf serum (PAA) for 17 hours, supplemented with solvent (citrate 1%) or 2-IB (10, 30, 50, 100, 300 ng/ml). Intracellular ROS were measured by adding 2′7′-dichlorodihydrofluorescein diacetate (H2DCFDA, Sigma-Aldrich) to a final concentration of 10 μM which is oxidized to fluorescent dichlorofluorescein (DCF) by intracellular ROS. DCF-loaded cells were kept in the dark at 37° C. and fluorescence was evaluated at an excitation wavelength of 485 nm and emission wavelength of 535 nm using an ELISA reader (Genios F L; Tecan, Crailsheim, Austria). Fluorescence data were acquired at time points 0 (T0) and 30 minutes (T30) and results were calculated as the increment of fluorescence (%) over time [(T30-T0)/T0×100]. Hydrogen peroxide was measured in the culture medium with a Quanti-Chrom™ Peroxide Assay Kit (Bio-Assay Systems, Hayward, USA), which utilizes the chromogenic Fe3+-xylenol orange reaction, in which a purple complex is formed when Fe2+ provided in the reagent is oxidized to Fe3+ by the hydrogen peroxide present in the sample. Briefly, 100 μl of detection reagent were added to 20 μl of culture medium and measurements were performed based on the manufacturer's protocol. Absorbance of the colorimetric samples and standards was measured at 620 nm using an ELISA reader (Tecan, Crailsheim, Germany)."}, "4VO rat model": {"tested_on": "4VO rat model", "experiment": "Histology, living neurons in CA1 region of hippocampus after 4VO", "format": "in vivo", "conditions": "33 days after insult", "procedure": "The rats were anesthetized using ketamine (90 mg/kg) and xylazine sodium ([…]), as described earlier (Meilin et al., 2014). The first cervical vertebrata was exposed and the vertebral arteries were permanently occluded by electrocauterization. The common carotid arteries were isolated through a ventral midline neck incision and lifted using a 4.0 silk suture ligature, placed around them.\nTwenty-four hours post vertebral arterial occlusion, the animals were reanesthetized using isoflurane. The common carotid arteries were exposed and occluded using microaneurysm clips for 15 minutes. After removing the clips reperfusion occurred. The skin of the incision at the neck was sutured using 4-0 silk suture. During the operation animal's core temperature was monitored using a rectal probe (Model 400; YSI Inc., Yellow Springs, Ohio, USA) connected to a thermometer (Model 8402-00; Cole-Parmer Instrument Co. Ltd, London, UK). The ischemic insult was initiated when a rectal temperature of 37-38° C. was achieved, and this temperature was maintained throughout the procedure using a heating mattress.\nDuring the acclimatization period rats were randomly assigned to experimental groups. The animals were subjected to 4VO per cage or one rat per cage was subjected to HI. Rats received either vehicle (normal saline at pH 3.8-4.0) or 2-IB (1.1 mg/kg, 3.3 mg/kg, 10 mg/kg and 30 mg/kg dissolved in 5 ml/kg normal saline at pH 3.8-4.0). Each dosing group was kept in separate cages to avoid cross-contamination by consuming stools during the study period. The experimental groups were as follows.\nRats were sacrificed at 33 days after the insult with an overdose of pentobarbital sodium (100 mg/kg i.p.). Histological analysis was performed in at least 9 rats for each group. The brains of the other 3 rats per group were snap frozen in liquid nitrogen and were stored for future analysis. The brain was perfused via the left ventricle with heparinised normal saline to remove the excess of blood from the brain. Afterwards the brain was perfused with 4% paraformaldehyde phosphate-buffered saline. The whole brain was removed and immersed in formaldehyde for at least another 72 hours. Brains were embedded in paraffin. Coronal sections ([…]) were cut at approximately 3.3 mm from the bregma and stained with hematoxylin-eosin. Sections were scored in a blinded way for living neurons in the right and left part of the CA1 region of the hippocampus, the most damaged area in this model of global ischemia. This was also considered a secondary outcome parameter."}, "IMR-32 cells [3]": {"tested_on": "IMR-32 cells", "experiment": "Metabolic activity assay (MTS)", "format": "cell-based, human", "procedure": "as §1\nMetabolically active cells were evaluated by using a colorimetric kit (CELLTITER96® AQueous One Solution Reagent G3580 Promega Madison, Wis., USA). Samples were prepared concerning to the manufacturer's protocol. Briefly, 4×10^4 cells were seeded per well in a 96-well plate with 100 μl DMEM/F12 supplemented with 10% FCS per well. After 2 days in culture, normoxia or hypoxia was applied for 7 hours followed by the addition of 2-IB or the respective solvent control (citrate 1%) for 17 hours. After that, 20 μl of […] reagent were added to each well for 2.5 hours at 37° C. Metabolic active cells generate a colored product, the absorbance of which was measured at 490 nm using an ELISA reader (Tecan, Crailsheim, Austria) in combination with the Magellan software v1.1."}},
  "data": [
    {"smiles": "N=C1N[C@H]2[C@H](CS[C@H]2CCCCC(=O)O)N1", "note": "[2-IB, 2-iminobiotin]", "values": [
      {"measurement": "nitrate and nitrite concentrations in culture media", "setting": "IMR-32 cells [1]", "result": "neither nitrate nor nitrite concentrations were influenced by hypoxia or by 2-IB"},
      {"measurement": "ROS increase (T30-T0)/T0×100", "setting": "IMR-32 cells [2]; 30 ng/ml 2-IB, hypoxia", "result": "222.00±52.57", "unit": "%"},
      {"measurement": "ROS increase (T30-T0)/T0×100", "setting": "IMR-32 cells [2]; 30 ng/ml 2-IB, normoxia", "result": "118.93±20.09", "unit": "%"},
      {"measurement": "ROS increase (T30-T0)/T0×100", "setting": "IMR-32 cells [2]; 50 ng/ml 2-IB, hypoxia", "result": "233.38±53.94", "unit": "%"},
      {"measurement": "ROS increase (T30-T0)/T0×100", "setting": "IMR-32 cells [2]; 50 ng/ml 2-IB, normoxia", "result": "154.85±30.83", "unit": "%"},
      {"measurement": "ROS increase (T30-T0)/T0×100", "setting": "IMR-32 cells [2]; 100 ng/ml 2-IB, hypoxia", "result": "246.71±58.94", "unit": "%"},
      {"measurement": "ROS increase (T30-T0)/T0×100", "setting": "IMR-32 cells [2]; 100 ng/ml 2-IB, normoxia", "result": "128.84±21.94", "unit": "%"},
      {"measurement": "ROS increase (T30-T0)/T0×100", "setting": "IMR-32 cells [2]; 300 ng/ml 2-IB, hypoxia", "result": "311.57±79.02", "unit": "%"},
      {"measurement": "ROS increase (T30-T0)/T0×100", "setting": "IMR-32 cells [2]; 300 ng/ml 2-IB, normoxia", "result": "141.20±25.35", "unit": "%"},
      {"measurement": "hypoxia-induced generation of ROS, most efficient concentration", "setting": "IMR-32 cells [2]; 10-300 ng/ml tested", "result": "most efficiently attenuated with 50 ng/ml 2-IB"},
      {"measurement": "surviving cells in the CA1 region", "setting": "4VO rat model; 1.1 mg/kg/dose s.c.", "result": "29±34"},
      {"measurement": "surviving cells in the CA1 region", "setting": "4VO rat model; 3.3 mg/kg/dose s.c.", "result": "71±61"},
      {"measurement": "surviving cells in the CA1 region", "setting": "4VO rat model; 10 mg/kg/dose s.c.", "result": "63±54"},
      {"measurement": "surviving cells in the CA1 region", "setting": "4VO rat model; 30 mg/kg/dose s.c.", "result": "50±51"},
      {"measurement": "metabolic activity", "setting": "IMR-32 cells [3]; 10 ng/ml 2-IB, hypoxia", "result": "0.44±0.10", "unit": "a.u."},
      {"measurement": "metabolic activity", "setting": "IMR-32 cells [3]; 10 ng/ml 2-IB, normoxia, 17 hours after hypoxia", "result": "0.44±0.08", "unit": "a.u."},
      {"measurement": "metabolic activity", "setting": "IMR-32 cells [3]; 30 ng/ml 2-IB, hypoxia", "result": "0.45±0.09", "unit": "a.u."},
      {"measurement": "metabolic activity", "setting": "IMR-32 cells [3]; 30 ng/ml 2-IB, normoxia", "result": "0.49±0.08", "unit": "a.u."},
      {"measurement": "metabolic activity", "setting": "IMR-32 cells [3]; 50 ng/ml 2-IB, hypoxia", "result": "0.41±0.06", "unit": "a.u."},
      {"measurement": "metabolic activity", "setting": "IMR-32 cells [3]; 50 ng/ml 2-IB, normoxia", "result": "0.50±0.08", "unit": "a.u."},
      {"measurement": "metabolic activity", "setting": "IMR-32 cells [3]; 100 ng/ml 2-IB, hypoxia", "result": "0.33±0.06", "unit": "a.u."},
      {"measurement": "metabolic activity", "setting": "IMR-32 cells [3]; 100 ng/ml 2-IB, normoxia", "result": "0.58±0.09", "unit": "a.u."},
      {"measurement": "metabolic activity", "setting": "IMR-32 cells [3]; 300 ng/ml 2-IB, hypoxia", "result": "0.33±0.07", "unit": "a.u."},
      {"measurement": "metabolic activity", "setting": "IMR-32 cells [3]; 300 ng/ml 2-IB, normoxia", "result": "0.63±0.09", "unit": "a.u."},
      {"measurement": "hypoxia-induced reduction of metabolic activity, most efficient concentrations", "setting": "IMR-32 cells [3]; 10-300 ng/ml tested, P<0.01 vs. control", "result": "most efficiently counteracted by 10, 30 and 50 ng/ml 2-IB"}
    ]}
  ]
}
